According to publication PMC11882969 (Nature Communications, 2025):
“And” between values parts separate entries of the source, which are not always exact repeats. Equal entries are not always repeated. Where two headings read alike, the source gives them in different places.

What was measured:
CB1 (rCB1) = CB1 (rCB1) (Rattus norvegicus, UniProt P20272); test: Radioligand competition binding, [3H]-CP-55,940, rat brain membranes; conditions: for pKi [95% CI]: rCB1; for Ki: read-out: Ki [95% CI], rCB1, [3H]-CP-55,940
hCB1 = hCB1 (Homo sapiens, UniProt P21554); test: bioSensAll ebBRET signaling profiling, hCB1; type: cell-based; set-up: host or cells: HEK293SL cells, transient PEI transfection; conditions: for Gi1 hCB1 response: Gi1 biosensor; for Gi1 hCB1 / GoB hCB1: single replicate values, FigS6a; for EC50: read-out: EC50 [95% CI]; for Emax: normalized to CP-55,940
[1] = Log [Compound] (M) -13, individual replicate values

Chain of CB1 (rCB1) (P20272 whole entry): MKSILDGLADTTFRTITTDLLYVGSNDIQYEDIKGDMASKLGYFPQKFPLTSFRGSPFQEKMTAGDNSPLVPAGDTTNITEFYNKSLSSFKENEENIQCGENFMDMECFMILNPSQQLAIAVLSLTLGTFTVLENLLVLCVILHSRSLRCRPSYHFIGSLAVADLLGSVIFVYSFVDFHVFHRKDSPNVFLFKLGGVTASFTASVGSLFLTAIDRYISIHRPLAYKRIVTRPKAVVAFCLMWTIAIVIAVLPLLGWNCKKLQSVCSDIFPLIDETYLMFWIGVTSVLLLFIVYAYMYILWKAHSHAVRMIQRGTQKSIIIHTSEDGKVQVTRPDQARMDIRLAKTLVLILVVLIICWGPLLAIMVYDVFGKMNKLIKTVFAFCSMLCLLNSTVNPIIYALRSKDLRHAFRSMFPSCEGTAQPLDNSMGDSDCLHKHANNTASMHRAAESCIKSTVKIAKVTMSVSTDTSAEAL
Chain of hCB1 (P21554 whole entry): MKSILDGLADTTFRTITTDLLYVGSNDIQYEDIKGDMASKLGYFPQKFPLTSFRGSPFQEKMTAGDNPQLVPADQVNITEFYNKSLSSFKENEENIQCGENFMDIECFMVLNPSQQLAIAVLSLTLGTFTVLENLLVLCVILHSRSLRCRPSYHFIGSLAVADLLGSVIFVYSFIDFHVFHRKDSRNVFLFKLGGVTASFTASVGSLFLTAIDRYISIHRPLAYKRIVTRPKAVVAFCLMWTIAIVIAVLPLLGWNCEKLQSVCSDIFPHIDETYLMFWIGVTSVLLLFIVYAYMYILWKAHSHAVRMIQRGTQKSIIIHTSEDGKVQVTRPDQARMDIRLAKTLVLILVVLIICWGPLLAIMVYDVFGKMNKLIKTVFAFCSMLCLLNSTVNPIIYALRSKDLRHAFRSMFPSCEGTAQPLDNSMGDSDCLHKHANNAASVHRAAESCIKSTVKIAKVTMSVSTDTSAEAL

## Cc1cc(C(=O)NC(c2ccccc2)c2ccco2)nn1-c1cccc(C(F)(F)F)c1 (centres unmarked) [‘1081]
CB1 (rCB1)
  pKi [95% CI]: 6.9 [6.8 – 7.1]
  Ki: 0.116 µM
hCB1; Log [Compound] (M) -4.22186
  Gi1 hCB1 response: 74.944
  Gi1 hCB1: 52.0891
  GoB hCB1: 46.0629
hCB1; Log [Compound] (M) -4.63927
  Gi1 hCB1 response: 67.9833
  Gi1 hCB1: 50.1467
  GoB hCB1: 47.4116
hCB1; Log [Compound] (M) -5.05788
  Gi1 hCB1 response: 54.8454
  Gi1 hCB1: 48.6204
  GoB hCB1: 38.1682
hCB1; Log [Compound] (M) -5.47381
  Gi1 hCB1 response: 47.9296
  Gi1 hCB1: 43.0088
  GoB hCB1: 38.8336
hCB1; Log [Compound] (M) -5.89285
  Gi1 hCB1 response: 64.2009
  Gi1 hCB1: 42.6234
  GoB hCB1: 33.6364
hCB1; Log [Compound] (M) -6.31878
  Gi1 hCB1 response: 42.1551
  Gi1 hCB1: 36.4105
  GoB hCB1: 34.6075
hCB1; Log [Compound] (M) -6.72585
  Gi1 hCB1 response: 23.6233
  Gi1 hCB1: 32.0322
  GoB hCB1: 26.2812
hCB1; Log [Compound] (M) -7.14267
  Gi1 hCB1 response: 32.464
  Gi1 hCB1: 17.1706
  GoB hCB1: 21.1739
hCB1; Log [Compound] (M) -7.55284
  Gi1 hCB1 response: 4.129
  Gi1 hCB1: 12.4531
  GoB hCB1: 14.1424
hCB1; Log [Compound] (M) -8
  Gi1 hCB1 response: -0.3248
  Gi1 hCB1: 6.533
  GoB hCB1: 4.935
hCB1; Log [Compound] (M) -8.22186
  Gi1 hCB1 response: 3.077
  Gi1 hCB1: 6.209
  GoB hCB1: 1.626
hCB1; Log [Compound] (M) -8.39794
  Gi1 hCB1 response: 0.4809
  Gi1 hCB1: 4.544
  GoB hCB1: 0.2593
hCB1; Log [Compound] (M) -8.68787
  Gi1 hCB1 response: 1.913
  Gi1 hCB1: 3.434
  GoB hCB1: -1.683
hCB1; Log [Compound] (M) -9.15521
  Gi1 hCB1 response: -3.123
  Gi1 hCB1: 3.357
  GoB hCB1: -3.445
hCB1; Log [Compound] (M) -9.61989
  Gi1 hCB1 response: -0.5486
  Gi1 hCB1: 1.492
  GoB hCB1: -0.6039
hCB1; Log [Compound] (M) -10.5529
  Gi1 hCB1 response: 3.637
  Gi1 hCB1: 3.496
  GoB hCB1: -5.459
hCB1; Log [Compound] (M) -11.0177
  Gi1 hCB1 response: -17.939
  Gi1 hCB1: 1.214
  GoB hCB1: -3.661
hCB1; Log [Compound] (M) -11.4949
  Gi1 hCB1 response: 0.01089
  Gi1 hCB1: 1.523
  GoB hCB1: 0.9786
hCB1; Log [Compound] (M) -11.9208
  Gi1 hCB1 response: -4.7116
  Gi1 hCB1: 2.833
  GoB hCB1: 3.047
hCB1; Log [Compound] (M) -12.3979
  Gi1 hCB1 response: -3.011
  Gi1 hCB1: 0.3511
  GoB hCB1: -1.071
hCB1; [1]
  Gi1 hCB1 response: 10.3511 and -8.673
hCB1; Log [Compound] (M) -10.0969
  Gi1 hCB1: 1.199
  GoB hCB1: -2.51
hCB1; Log [Compound] (M) -12.8861
  Gi1 hCB1: 2.432
  GoB hCB1: -2.402
hCB1; Log [Compound] (M) -13
  Gi1 hCB1: 2.448 and 3.003
  GoB hCB1: -0.01046 and 0.7448
hCB1; hCB1 Gi1
  pEC50 [95% CI]: 6.8 [6.7 – 6.9]
  EC50: 0.15 µM
hCB1; hCB1 GoB
  pEC50 [95% CI]: 7.0 [6.8 – 7.3]
  EC50: 0.0917 µM
hCB1; hCB1 Gz
  pEC50 [95% CI]: 6.7 [6.2 – 7.1]
  EC50: 0.225 µM
hCB1; read-out: Emax [95% CI], hCB1 Gi1
  Emax: 49%
hCB1; read-out: Emax [95% CI], hCB1 GoB
  Emax: 45%
hCB1; read-out: Emax [95% CI], hCB1 Gz
  Emax: 72%

## Cc1cc(C(=O)N(C)C(c2ccco2)c2ccco2)nn1-c1cccc(C(F)(F)F)c1 [‘4388]
CB1 (rCB1)
  pKi [95% CI]: 5.9 [5.7 – 6.0]
  Ki: 1.36 µM
hCB1; Log [Compound] (M) -4.22186
  Gi1 hCB1 response: -4.018
  Gi1 hCB1: -1.453
  GoB hCB1: -21.3927
hCB1; Log [Compound] (M) -4.63927
  Gi1 hCB1 response: -19.2595
  Gi1 hCB1: -2.47
  GoB hCB1: -23.227
hCB1; Log [Compound] (M) -5.05788
  Gi1 hCB1 response: -23.1763
  Gi1 hCB1: -11.3501
  GoB hCB1: -26.2122
hCB1; Log [Compound] (M) -5.47381
  Gi1 hCB1 response: 10.5525
  Gi1 hCB1: -11.1959
  GoB hCB1: -26.6258
hCB1; Log [Compound] (M) -5.89285
  Gi1 hCB1 response: -11.6498
  Gi1 hCB1: -9.5
  GoB hCB1: -20.8711
hCB1; Log [Compound] (M) -6.31878
  Gi1 hCB1 response: -15.6337
  Gi1 hCB1: -8.93
  GoB hCB1: -17.76
hCB1; Log [Compound] (M) -6.72585
  Gi1 hCB1 response: 2.07
  Gi1 hCB1: -4.983
  GoB hCB1: -9.883
hCB1; Log [Compound] (M) -7.14267
  Gi1 hCB1 response: 5.942
  Gi1 hCB1: 0.7674
  GoB hCB1: -5.046
hCB1; Log [Compound] (M) -7.55284
  Gi1 hCB1 response: 4.107
  Gi1 hCB1: 2.355
  GoB hCB1: 0.4032
hCB1; Log [Compound] (M) -8
  Gi1 hCB1 response: 5.7853
  Gi1 hCB1: 1.985
  GoB hCB1: -1.107
hCB1; Log [Compound] (M) -8.22186
  Gi1 hCB1 response: 57.4864
  Gi1 hCB1: 1.292
  GoB hCB1: -1.989
hCB1; Log [Compound] (M) -8.39794
  Gi1 hCB1 response: -7.509
  Gi1 hCB1: 1.677
  GoB hCB1: 0.9427
hCB1; Log [Compound] (M) -8.68787
  Gi1 hCB1 response: 16.0808
  Gi1 hCB1: 1.23
  GoB hCB1: -0.8377
hCB1; Log [Compound] (M) -9.15521
  Gi1 hCB1 response: -3.346
  Gi1 hCB1: 0.9215
  GoB hCB1: -0.8737
hCB1; Log [Compound] (M) -9.61989
  Gi1 hCB1 response: -13.3061
  Gi1 hCB1: 0.08902
  GoB hCB1: -0.7118
hCB1; Log [Compound] (M) -10.0969
  Gi1 hCB1 response: -9.456
  Gi1 hCB1: 1.816
  GoB hCB1: -0.7298
hCB1; Log [Compound] (M) -10.5529
  Gi1 hCB1 response: 6.658
  Gi1 hCB1: 1.122
  GoB hCB1: -2.258
hCB1; Log [Compound] (M) -11.0177
  Gi1 hCB1 response: 9.836
  Gi1 hCB1: 1.6
  GoB hCB1: 0.6549
hCB1; Log [Compound] (M) -11.4949
  Gi1 hCB1 response: 13.8426
  Gi1 hCB1: 2.232
  GoB hCB1: -1.305
hCB1; Log [Compound] (M) -11.9208
  Gi1 hCB1 response: 7.912
  Gi1 hCB1: 2.186
  GoB hCB1: -1.089
hCB1; Log [Compound] (M) -12.3979
  Gi1 hCB1 response: 17.8713
  Gi1 hCB1: 1.137
  GoB hCB1: -1.305
hCB1; Log [Compound] (M) -12.8861
  Gi1 hCB1 response: 0.7271
  Gi1 hCB1: 1.415
  GoB hCB1: -0.9816
hCB1; [1]
  Gi1 hCB1 response: -6.01 and 6.502
hCB1; Log [Compound] (M) -13
  Gi1 hCB1: 2.1086 and 2.987
  GoB hCB1: 0.8707 and 0.2953
